{"source": "ChEMBL document CHEMBL1130203", "about": "“Novel fluoroquinolone antibacterial agents containing oxime-substituted (aminomethyl)pyrrolidines: synthesis and antibacterial activity of 7-(4-(aminomethyl)-3-(methoxyimino)pyrrolidin-1-yl)-1-cyclopropyl-6- fluoro-4-oxo-1,4-dihydro[1,8]naphthyridine-3-carboxylic acid (LB20304)” (J Med Chem, 1997)", "key": {"[1]": {"assay": "Half-life in Dogs was determined after Peroral administration", "format": "ADME, organism-based, Canis lupus familiaris", "conditions": "dog, in vivo, po"}, "[2]": {"assay": "Half-life in Rats was determined after Peroral administration", "format": "ADME, organism-based", "conditions": "rat, in vivo, po"}, "[3]": {"system": "Staphylococcus epidermidis", "assay": "Minimum inhibitory concentration (MIC) against Staphylococcus epidermidis 178", "format": "functional"}, "Mus musculus [4]": {"species_on_record": "Mus musculus", "assay": "Minimum inhibitory concentration (MIC) against systemic infection in mouse by Staphylococcus aureus giorgio", "format": "functional"}, "Enterococcus faecalis": {"system": "Enterococcus faecalis", "assay": "Minimum inhibitory concentration (MIC) against Streptococcus faecalis 29212", "format": "functional"}, "Mus musculus [5]": {"species_on_record": "Mus musculus", "assay": "50% Effective dose against systemic Infection in mouse by Staphylococcus aureus giorgio", "format": "functional"}, "[6]": {"system": "Acinetobacter calcoaceticus", "assay": "Minimum inhibitory concentration (MIC) against Acinetobacter calcoaceticus 15473", "format": "functional"}, "Pseudomonas aeruginosa [7]": {"system": "Pseudomonas aeruginosa", "assay": "Minimum inhibitory concentration (MIC) against Pseudomonas aeruginosa 1912E", "format": "functional"}, "[8]": {"assay": "Area under curve was determined in Rats after peroral administration", "format": "ADME, organism-based", "conditions": "rat, in vivo, po"}, "Escherichia coli [9]": {"system": "Escherichia coli", "assay": "Minimum inhibitory concentration (MIC) against Escherichia coli TEM9 2639E", "format": "functional"}, "Mus musculus [10]": {"species_on_record": "Mus musculus", "assay": "50% Effective dose against systemic Infection in mouse by Streptococcus pneumoniae 77A", "format": "functional"}, "[11]": {"assay": "maximum Plasma concentration in Dog was determined after Peroral administration", "format": "ADME, organism-based, Canis lupus familiaris", "parameters": "route oral", "conditions": "po"}, "Klebsiella aerogenes": {"system": "Klebsiella aerogenes", "assay": "Minimum inhibitory concentration (MIC) against Klebsiella aerogenes 1082E", "format": "functional"}, "[12]": {"assay": "Area under curve was determined in Dogs after peroral administration", "format": "ADME, organism-based, Canis lupus familiaris", "conditions": "dog, in vivo, po"}, "Mus musculus [13]": {"species_on_record": "Mus musculus", "assay": "50% Effective dose against systemic Infection in mouse by Pseudomonas aeruginosa 1912E", "format": "functional"}, "[14]": {"assay": "Oral Bioavailability was determined in Dogs after Peroral administration", "format": "ADME, organism-based, Canis lupus familiaris", "conditions": "dog, in vivo"}, "[15]": {"assay": "maximum Plasma concentration in Rats was determined after Peroral administration", "format": "ADME, organism-based", "parameters": "route oral", "conditions": "rat, po"}, "Mus musculus [16]": {"species_on_record": "Mus musculus", "assay": "Minimum inhibitory concentration (MIC) against systemic infection in mouse by Streptococcus pneumoniae 77A", "format": "functional"}, "Mus musculus [17]": {"species_on_record": "Mus musculus", "assay": "50% Effective dose against systemic Infection in mouse by Escherichia coli 851E", "format": "functional"}, "[18]": {"assay": "Tmax was determined in dogs after Peroral administration", "format": "ADME, organism-based, Canis lupus familiaris", "conditions": "dog, in vivo, po"}, "[19]": {"assay": "Tmax was determined in Rats after Peroral administration", "format": "ADME, organism-based", "conditions": "rat, in vivo, po"}, "Escherichia coli [20]": {"system": "Escherichia coli", "assay": "Minimum inhibitory concentration (MIC) against Escherichia coli 851E"}, "[21]": {"assay": "Oral bioavailability in rat", "format": "ADME, organism-based", "conditions": "in vivo"}, "Staphylococcus aureus": {"system": "Staphylococcus aureus", "assay": "Minimum inhibitory concentration (MIC) against Staphylococcus aureus 241", "format": "functional"}, "Pseudomonas aeruginosa [22]": {"system": "Pseudomonas aeruginosa", "assay": "Minimum inhibitory concentration (MIC) against Pseudomonas aeruginosa 1912E"}}, "data": [{"compound": "CO/N=C1\\CN(c2nc3c(cc2F)c(=O)c(C(=O)O)cn3C2CC2)CC1CN", "note": "(stereo in doubt; 20) [GEMIFLOXACIN]", "values": [{"measurement": "half-life", "setting": "[1]", "value": 5.12, "unit": "h"}, {"measurement": "half-life", "setting": "[2]", "value": 2.33, "unit": "h"}, {"measurement": "MIC", "setting": "[3]", "value": 4, "unit": "µg/mL"}, {"measurement": "MIC", "setting": "Mus musculus [4]", "value": "< 0.008", "unit": "µg/mL"}, {"measurement": "MIC", "setting": "Enterococcus faecalis", "value": 0.063, "unit": "µg/mL"}, {"measurement": "ED50", "setting": "Mus musculus [5]", "value": 1.17, "unit": "mg/kg"}, {"measurement": "MIC", "setting": "[6]", "value": 0.063, "unit": "µg/mL"}, {"measurement": "MIC", "setting": "Pseudomonas aeruginosa [7]", "value": 0.25, "unit": "µg/mL"}, {"measurement": "AUC", "setting": "[8]", "value": 8500, "unit": "ng·h/mL"}, {"measurement": "MIC", "setting": "Escherichia coli [9]", "value": 0.031, "unit": "µg/mL"}, {"measurement": "ED50", "setting": "Mus musculus [10]", "value": 7.64, "unit": "mg/kg"}, {"measurement": "Cmax", "setting": "[11]", "value": 1340, "unit": "ng/mL"}, {"measurement": "MIC", "setting": "Klebsiella aerogenes", "value": 0.031, "unit": "µg/mL"}, {"measurement": "AUC", "setting": "[12]", "value": 7550, "unit": "ng·h/mL"}, {"measurement": "ED50", "setting": "Mus musculus [13]", "value": 2.08, "unit": "mg/kg"}, {"measurement": "bioavailability", "setting": "[14]", "value": 71, "unit": "%"}, {"measurement": "Cmax", "setting": "[15]", "value": 2440, "unit": "ng/mL"}, {"measurement": "MIC", "setting": "Mus musculus [16]", "value": 0.016, "unit": "µg/mL"}, {"measurement": "ED50", "setting": "Mus musculus [17]", "value": 0.47, "unit": "mg/kg"}, {"measurement": "Tmax", "setting": "[18]", "value": 1.13, "unit": "h"}, {"measurement": "Tmax", "setting": "[19]", "value": 0.33, "unit": "h"}, {"measurement": "MIC", "setting": "Escherichia coli [20]", "value": "< 0.008", "unit": "µg/mL"}, {"measurement": "bioavailability", "setting": "[21]", "value": 95.3, "unit": "%"}, {"measurement": "MIC", "setting": "Staphylococcus aureus", "value": 4, "unit": "µg/mL"}, {"measurement": "MIC", "setting": "Pseudomonas aeruginosa [22]", "value": 0.25, "unit": "µg/mL"}]}]}
